Reference: ChEMBL document CHEMBL3044610, “Khayanolides, rearranged phragmalin limonoid antifeedants from Khaya senegalensis” (Tetrahedron, 2001)
The source made the active and inactive calls. No cut-off for these calls is given here.

What was measured:
Format in all cases: functional, organism-based
Spodoptera littoralis [1] = assay: Antifeedant activity against third-instar larva of Spodoptera littoralis fed on compound-treated Chinese cabbage leaf at 500 ppm by leaf-disk method
Spodoptera littoralis [2] = assay: Antifeedant activity against third-instar larva of Spodoptera littoralis fed on compound-treated Chinese cabbage leaf at 300 ppm by leaf-disk method
Spodoptera littoralis [3] = assay: Antifeedant activity against third-instar larva of Spodoptera littoralis fed on compound-treated Chinese cabbage leaf at 1000 ppm by leaf-disk method

| SMILES | Activity (Spodoptera littoralis [1]) | other results |
| --- | --- | --- |
| COC(=O)[C@H](O)[C@H]1[C@@]2(C)C[C@]3(O)[C@H]4[C@@H](O[C@]56CC(=O)O[C@H](c7ccoc7)[C@]5(C)CC[C@H]([C@]13C)[C@]46O)[C@H]2O | Active |  |
| C=C1[C@@H]2CC[C@@]3(C)[C@H](c4ccoc4)OC(=O)C[C@]13O[C@H]1CC(=O)C(C)(C)[C@H](CC(=O)OC)[C@]12C | Active |  |
| CC1(C)C(=O)[C@@H]2C[C@@]34O[C@]2(O)[C@]2(COC(=O)C[C@@H]12)[C@H]3CC[C@]1(C)[C@H]4CC(=O)O[C@H]1c1ccoc1 |  | Activity (Spodoptera littoralis [2]): Active |
| COC(=O)[C@H](O)[C@H]1[C@]2(C)C[C@]3(O)[C@H](C(=O)[C@H]2O)[C@]24O[C@]25CC(=O)O[C@H](c2ccoc2)[C@]5(C)CC[C@@H]4[C@]13C |  | Activity (Spodoptera littoralis [2]): Active |
| COC(=O)[C@H](O)[C@H]1[C@]2(C)C[C@]3(O)[C@@H](C(=O)[C@H]2O)[C@]2(O)C4=CC(=O)O[C@@H](c5ccoc5)[C@]4(C)CC[C@@H]2[C@]13C |  | Activity (Spodoptera littoralis [3]): Active |
| C=C1[C@@H]2CC[C@@]3(C)[C@H](c4ccoc4)OC(=O)C[C@]13O[C@H]1CC(=O)C(C)(C)[C@H](C(O)C(=O)OC)[C@]12C (some centres not stated) | Active |  |
| C=C1[C@@H]2CC[C@@]3(C)[C@H](c4ccoc4)OC(=O)C[C@]13O[C@H]1CC(=O)C(C)(C)[C@H](C(OC(C)=O)C(=O)OC)[C@]12C (some centres not stated) | Active |  |
